Legend:
[1] = tested on: HT29 (colorectal adenocarcinoma); assay: In vitro growth inhibition screen (sulphorhodamine B), HT29; assay type: cell-based, human; conditions: HT29 cells, incubated for 48 hours, sulphorhodamine B dye; read-out: GI50 (concentration which inhibits the cell growth by 50%), HT29 Colorectal adenocarcinoma
Protocol: (§1) Each agent was tested over a broad concentration range (ten-fold dilutions starting from ≧100 μM to 10 nM) against 6 human cancer cell lines which was comprised of different tumor types. These are DU145 (prostate carcinoma), HT29 (colorectal adenocarcinoma), LOX (melanoma), MCF7 (breast adenocarcinoma), MCF7ADR (adriamycin resistant breast adenocarcinoma), and U251 (human glioblastoma). A standard compound doxorubicin was tested in each assay as a positive control. The cells were maintained in growing condition in RPMI 1640 medium containing 10% fetal calf serum and incubated at 37° C. under 5% CO2 atmosphere. All cell lines were inoculated onto a series of standard 96-well microtitre plate on day zero, followed by twenty four-hour incubation in the absence of test compound. The inoculation densities in the screen were as per Monk et al., (1991) J. Natl. Cancer Inst., 83, 757-766. All NCEs were dissolved in DMSO and diluted further in culture medium. An aliquot of each dilution was added to the growing cells in 96 well plates and incubated for 48 hours. After incubation, the assay was terminated by adding 50 μL of trichloroacetic acid (TCA) and incubating at 4° C. for 30 min. The precipitated cells were washed and stained with sulphorhodamine B dye for 30 min and the excess dye was washed off with acetic acid. Adsorbed dye was solubilised in Tris base (alkaline pH) and quantitated by measuring the OD at […] in ELISA READER. GI50 (concentration which inhibits the cell growth by 50%) was calculated according to Boyd and Paull, (1995) Drug Dev. Res., 34, 91-109.

[2] = tested on: MCF7 (breast adenocarcinoma); assay: In vitro growth inhibition screen (sulphorhodamine B), MCF7; assay type: cell-based, human; conditions: MCF7 cells, incubated for 48 hours, sulphorhodamine B dye; read-out: GI50 (concentration which inhibits the cell growth by 50%), MCF7 Breast adenocarcinoma
Protocol: as §1

LOX (melanoma) = assay: In vitro growth inhibition screen (sulphorhodamine B), LOX; assay type: cell-based, human; conditions: LOX cells, incubated for 48 hours, sulphorhodamine B dye; read-out: GI50 (concentration which inhibits the cell growth by 50%), LOX Melanoma
Protocol: as §1

[3] = tested on: DU145 (prostate carcinoma); assay: In vitro growth inhibition screen (sulphorhodamine B), DU145; assay type: cell-based, human; conditions: DU145 cells, incubated for 48 hours, sulphorhodamine B dye; read-out: GI50 (concentration which inhibits the cell growth by 50%), DU145 Prostate carcinoma
Protocol: as §1

[4] = tested on: MCF7ADR (adriamycin resistant breast adenocarcinoma); assay: In vitro growth inhibition screen (sulphorhodamine B), MCF7ADR; assay type: cell-based, human; conditions: MCF7ADR cells, incubated for 48 hours, sulphorhodamine B dye; read-out: GI50 (concentration which inhibits the cell growth by 50%), MCF7ADR Adriamycin Resistant Breast adenocarcinoma
Protocol: as §1

[5] = tested on: U251 (human glioblastoma); assay: In vitro growth inhibition screen (sulphorhodamine B), U251; assay type: cell-based; conditions: U251 cells, incubated for 48 hours, sulphorhodamine B dye; read-out: GI50 (concentration which inhibits the cell growth by 50%), U251 Human glioblastoma astrocytoma
Protocol: as §1

Compound | GI50 [1] [µM] | GI50 [2] [µM] | GI50 (LOX (melanoma)) [µM] | GI50 [3] [µM] | GI50 [4] [µM] | GI50 [5] [µM]
2,3,4-Tri-O-benzyl-6-(trifluoromethylacetamido)-N-propyl-D-gluco-δ-lactam [Compound No. 51] | 6.8 | 9.9 | 13.6 | 43.7 | 16 | 10.3
2,3,4-Tri-O-benzyl-6-N-[3-{2-iminocarbonyl aminoethyl)-indolyl]-N-propyl-D-gluco-δ-lactam [Compound No. 78] | 33.6 | 9.2 | 45.1 | 57.3 | 29.8 | 4.3
2,3,4-Tri-O-benzyl-6-N-{[isopropyl]aminocarbonylamino}-1,5-dideoxy-1,5-imino-N-propyl glucitol [Compound No. 38] | 35 | > 380 | 281 | 98.4 | > 380 | > 380
6-N-{2-[1,5-Dideoxy-1,5-imino-glucit-6-ol]acetyl}-N-propyl-D-gluco-δ-lactam [Compound No. 67] | 106 | 107 | 67.6 | 81.6 | 75.4 | 91.5
C=CCN1C(=O)[C@H](OCc2ccccc2)[C@@H](OCc2ccccc2)[C@H](OCc2ccccc2)[C@H]1COS(=O)(=O)c1ccc(C)cc1 [Compound No. 1, N-Allyl-6-O-(p-toluenesulphonyl)-2,3,4-tri-O-benzyl-D-gluco-δ-lactam] | 203 | 378 | > 624 | 364 | > 624 | > 624
CCCN1C(=O)[C@H](OCc2ccccc2)[C@@H](OCc2ccccc2)[C@H](OCc2ccccc2)[C@H]1CNC(=S)Nc1ccc2ccccc2c1 [Compound No. 2, 2,3,4-Tri-O-benzyl-6-N-{[2-naphthyl]aminothiocarbonylamino}-N-propyl-D-gluco-δ-lactam] | 137 | 175 | 40.9 | 151 | 229 | 172
CCCN1C(=O)C(OCc2ccccc2)C(OCc2ccccc2)C(OCc2ccccc2)C1CNC(=O)Nc1ccc(Cl)cc1 [Compound No. 3, 2,3,4-Tri-O-benzyl-6-N-{[4-chlorophenyl]aminocarbonylamino}-N-propyl-D-gluco-δ-lactam] | 6.1 | 0.8 | 2.1 | 2 | 8.2 | 1.1
CCCN1C(=O)C(OCc2ccccc2)C(OCc2ccccc2)C(OCc2ccccc2)C1CNC(=O)Nc1ccc(OC)cc1 [Compound No. 4, 2,3,4-Tri-O-benzyl-6-N-{[p-methoxyphenyl]aminocarbonylamino}-N-propyl-D-gluco-δ-lactam] | 49.4 | 13.6 | 112 | 116 | 115 | 16.8
CCCN1C(=O)C(OCc2ccccc2)C(OCc2ccccc2)C(OCc2ccccc2)C1CNC(=O)Nc1ccc([N+](=O)[O-])cc1 [Compound No. 5, 2,3,4-Tri-O-benzyl-6-N-{[p-nitrophenyl]aminocarbonylamino}-N-propyl-D-gluco-δ-lactam] | 14.6 | 11.4 | 10.4 | 29.6 | 33.9 | 46.9
CCCN1C(=O)[C@H](OCc2ccccc2)[C@@H](OCc2ccccc2)[C@H](OCc2ccccc2)[C@H]1CNC(=O)Nc1ccc(C)cc1 [Compound No. 6, 2,3,4-Tri-O-benzyl-6-N-{[p-tolyl]aminocarbonylamino}-N-propyl-D-gluco-δ-lactam] | 47.2 | 433 | 67.4 | 50.1 | 110 | 82.3
CCCN1C(=O)[C@H](OCc2ccccc2)[C@@H](OCc2ccccc2)[C@H](OCc2ccccc2)[C@H]1CNC(=O)Nc1ccc(Cl)cc1C(F)(F)F [Compound No. 7, 2,3,4-Tri-O-benzyl-6-N-{[4-chloro-2-trifluoromethylphenyl]aminocarbonylamino}-N-propyl-D-gluco-δ-lactam] | 68.6 | > 353 | 10.8 | > 353 | 58.4 | 63.5
CCCN1C(=O)[C@H](OCc2ccccc2)[C@@H](OCc2ccccc2)[C@H](OCc2ccccc2)[C@H]1CNC(=S)NC(C)C [Compound No. 8, 2,3,4-Tri-O-benzyl-6-N-{[isopropyl]aminothiocarbonylamino}-N-propyl-D-gluco-δ-lactam] | 9 | 1.3 | 2.2 | 3.4 | 0.6 | 2.5
CCCN1C(=O)[C@H](OCc2ccccc2)[C@@H](OCc2ccccc2)[C@H](OCc2ccccc2)[C@H]1CNC(=S)Nc1ccccc1 [Compound No. 9, 2,3,4-Tri-O-benzyl-6-N-{[phenyl]aminothiocarbonylamino}-N-propyl-D-gluco-δ-lactam] | 40 | 35.8 | 6.9 | 22.1 | 13.9 | 20.2
CCCN1C(=O)[C@H](OCc2ccccc2)[C@@H](OCc2ccccc2)[C@H](OCc2ccccc2)[C@H]1CNC(=O)Nc1ccccc1 [Compound No. 10, 2,3,4-Tri-O-benzyl-6-N-{[phenyl]aminocarbonylamino}-N-propyl-D-gluco-δ-lactam] | 36.9 | 34.7 | 12.5 | 39.3 | 16.7 | 16.4
CCCN1C(=O)[C@H](OCc2ccccc2)[C@@H](OCc2ccccc2)[C@H](OCc2ccccc2)[C@H]1CNC(=O)Nc1ccc(F)cc1 [Compound No. 11, 2,3,4-Tri-O-benzyl-6-N-{[p-fluorophenyl]aminocarbonylamino}-N-propyl-D-gluco-δ-lactam] | 2.7 | 2.4 | 2.1 | 2.7 | 2.6 | 3.2
CCCN1C(=O)C(OCc2ccccc2)C(OCc2ccccc2)C(OCc2ccccc2)C1CNC(=O)NS(=O)(=O)c1ccc(Cl)cc1 [Compound No. 12, 2,3,4-Tri-O-benzyl-6-N-{[p-chlorophenylsulfonyl]aminocarbonylamino}-N-propyl-D-gluco-δ-lactam] | 29.3 | 88.2 | 41.6 | 48.7 | 35 | 61.8
CCCN1C(=O)[C@H](OCc2ccccc2)[C@@H](OCc2ccccc2)[C@H](OCc2ccccc2)[C@H]1CNC(=O)Nc1cccc(Cl)c1 [Compound No. 13, 2,3,4-Tri-O-benzyl-6-N-{[3-chlorophenyl]aminocarbonylamino}-N-propyl-D-gluco-δ-lactam] | 3.6 | 6.4 | 3.1 | 4.2 | 4.6 | 6.4
CCCN1C(=O)[C@H](OCc2ccccc2)[C@@H](OCc2ccccc2)[C@H](OCc2ccccc2)[C@H]1CNC(=O)Nc1cccc(C(C)=O)c1 [Compound No. 14, 2,3,4-Tri-O-benzyl-6-N-{[3-acetylphenyl]aminocarbonylamino}-N-propyl-D-gluco-δ-lactam] | 30.4 | 35.7 | 7.6 | 21 | 6.7 | 15
CCCN1C(=O)C(OCc2ccccc2)C(OCc2ccccc2)C(OCc2ccccc2)C1CNC(=O)Nc1cc(Cl)ccc1OC [Compound No. 15, 2,3,4-Tri-O-benzyl-6-N-{[3-chloro-6-methoxyphenyl]aminocarbonylamino}-N-propyl-D-gluco-δ-lactam] | 41.9 | 29.9 | 57.2 | 44.4 | 53.8 | 40.8
CCCN1C(=O)[C@H](OCc2ccccc2)[C@@H](OCc2ccccc2)[C@H](OCc2ccccc2)[C@H]1CNC(=O)Nc1ccc(F)cc1F [Compound No. 16, 2,3,4-Tri-O-benzyl-6-N-{[2,4-difluorophenyl]aminocarbonylamino}-N-propyl-D-gluco-δ-lactam] | 58.2 | 55.6 | 53.3 | 59.7 | 74.1 | 22.9

Source: patent publication US20060241114A1, “Derivatives of azasugars as anticancer agents” (priority 2003, published 2006)
